The record followed here is patent US6251900A, “Heterocyclic compounds and antitumor agent containing the same as active ingredient” (Zenyaku Kogyo Kabushiki Kaisha, priority 1997, dated 2001).

The structures appear in SMILES notation.

The test has as its system MCF-7 cells. In words: Growth inhibition of MCF-7 human breast cancer cells, 72 h culture (Test 1). In kind it is cell-based. The note with it: MCF7, 37° C., read-out: 50% Growth inhibition concentrations (GI50). On the procedure:
Used in the test were MCF-7 cells which were established from human breast cancer and were cultured routinely under the conditions of 37° C. and 5% CO2, in RPMI 1640 medium supplemented with 10% fetal calf serum, HEPES buffer solution (25 mM) and kanamycin (0.1 mg/ml). Single cell suspension was prepared by adding trypsin/EDTA to the medium so as to be adjusted to 4.0×10^4 cells/ml. Test compounds were dissolved or suspended in DMSO or RPMI 1640 medium at a concentration of 1.0×10^-4 -1.0×10^-9 M.
The cell suspension and the sample solution or suspension were filled in a 96-wells microplate at a rate of 0.1 ml of the former and 0.1 ml of the latter per well and cultured at 37° C. for 72 hours in 5% CO2.
50% Growth inhibition concentrations (GI50 μM) were calculated from growth inhibitions at various sample concentrations.
With `C[C@@H]1OCCN(c2nc(N3CCOCC3)nc(-n3cnc4ccccc43)n2)[C@@H]1C` (relative stereo) [compound 7, 2-(benzimidazol-1-yl)-4-(cis-2,3-dimethylmorpholino)-6-morpholino-1,3,5-triazine], the GI50 came to 1 µM. Regarding `C[C@@H]1CN(c2nc(N3CCO[C@@H](C)[C@H]3C)nc(-n3cnc4ccccc43)n2)C[C@H](C)O1` (relative stereo) [compound 8, 2-(benzimidazol-1-yl)-4-(cis-2,3-dimethylmorpholino)-6-(cis-2,6-dimethylmorpholino)-1,3,5-triazine], the GI50 was found to be 3.9 µM. The same measure for `C[C@H]1CN(c2nc(N3CCOCC3)nc(-n3cnc4ccccc43)n2)C[C@H](C)O1` (relative stereo) [compound 14, 2-(benzimidazol-1-yl)-4-(trans-2,6-dimethylmorpholino)-6-morpholino-1,3,5-triazine]: 2.3 µM. Turning to `C[C@H]1CN(c2cc(N3CCOCC3)nc(-n3cnc4ccccc43)n2)C[C@H](C)O1` (relative stereo) [compound 20, 2-(benzimidazol-1-yl)-4-(trans-2,6-dimethylmorpholino)-6-morpholinopyrimidine], the GI50 was 2.8 µM.

Regarding `C[C@@H]1OCCN(c2cc(N3CCOCC3)nc(-n3cnc4ccccc43)n2)[C@@H]1C` (relative stereo) [compound 21, 2-(benzimidazol-1-yl)-4-(cis-2,3-dimethylmorpholino)-6-morpholinopyrimidine], the GI50 amounted to 1.1 µM. For the compound `c1ccc2c(c1)ncn2-c1nc(N2CCOCC2)nc(N2CCOCC2)n1` [compound 2, 2-(benzimidazol-1-yl)-4,6-dimorpholino-1,3,5-triazine], the GI50 is 3.3 µM.

As for `Cc1nc2ccccc2n1-c1nc(N2CCOCC2)nc(N2CCOCC2)n1` [compound 3, 2-(2-methylbenzimidazol-1-yl)-4,6-dimorpholino-1,3,5-triazine], the GI50 came out at 3.7 µM. Regarding `N#Cc1nc(N2CCOCC2)nc(-n2cnc3ccccc32)n1` [compound 4, 2-(benzimidazol-1-yl)-4-cyano-6-morpholino-1,3,5-triazine], the GI50 was 3.8 µM. Next, `FC(F)(F)C1CN(c2nc(N3CCOCC3)nc(-n3cnc4ccccc43)n2)CCO1` (stereo not drawn) [compound 6, 2-(benzimidazol-1-yl)-4-morpholino-6-(2-trifluoro-methylmorpholino)-1,3,5-triazine]: 7.2 µM; `CCC1CN(c2nc(N3CCOCC3)nc(-n3cnc4ccccc43)n2)CCO1` (stereo not drawn) [compound 12, 2-(benzimidazol-1-yl)-4-(2-ethylmorpholino)-6-morpholino-1,3,5-triazine]: 3.9 µM; `CC1CN(c2nc(N3CCOCC3)nc(-n3cnc4ccccc43)n2)CCO1` (stereo not drawn) [compound 16, 2-(benzimidazol-1-yl)-4-(2-methylmorpholino)-6-morpholino-1,3,5-triazine]: 4.8 µM. For the compound `CC(C)(C)OC(=O)NCC1CN(c2nc(N3CCOCC3)nc(-n3cnc4ccccc43)n2)CCO1` (stereo not drawn) [compound 18, 2-(benzimidazol-1-yl)-4-[2-(tert-butoxycarbonylamino-methyl)morpholino]-6-morpholino-1,3,5-triazine], the GI50 was 6.3 µM.

Take `c1ccc2c(c1)ncn2-c1nc(N2CCOCC2)cc(N2CCSCC2)n1` [compound 23, 2-(benzimidazol-1-yl)-4-morpholino-6-thiomorpholino-pyrimidine]: the GI50 is 3.9 µM.

On to `CC(C)(C)OC(=O)NCC1CN(c2cc(N3CCOCC3)nc(-n3cnc4ccccc43)n2)CCO1` (stereo not drawn) [compound 25, 2-(benzimidazol-1-yl)-4-[2-(tert-butoxycarbonylamino-methyl)morpholino]-6-morpholinopyrimidine], for which the GI50 stood at 4 µM.

For the compound `Cc1cc2ncn(-c3nc(N4CCOCC4)nc(N4CCOCC4)n3)c2cc1C` [compound 30, 2-(5,6-dimethylbenzimidazol-1-yl)-4,6-dimorpholino-1,3,5-triazine], the GI50 stood at 3.7 µM.
